Test results from patent US20080031866A1, “METHOD FOR MODULATING THE PHARMACOKINETICS AND METABOLISM OF A THERAPEUTIC AGENT” (priority 2006, published 2008).

Experiments:
[1] = Intracolonic dosing with and without β-glucuronidase, catheterized rat; type: in vivo; conditions: for AUC / Cmax / concentration at 0 h / concentration at 0.25 h / concentration at 0.5 h / concentration at 1 h / concentration at 2 h / concentration at 3 h / concentration at 4 h / concentration at 5 h / concentration at 6 h: male, Sprague Dawley, rat, plasma; for AUC / Cmax / concentration at 0 h / concentration at 0.25 h / concentration at 0.5 h / concentration at 1 h / concentration at 2 h / concentration at 3 h / concentration at 4 h / concentration at 5 h / concentration at 6 h / AUC average ± standard deviation 0 to 6 hours: 10 mg/kg; for Cmax: read-out: Cmax average ± standard deviation; for concentration at 0 h / concentration at 0.25 h / concentration at 0.5 h / concentration at 1 h / concentration at 2 h / concentration at 3 h / concentration at 4 h / concentration at 5 h / concentration at 6 h: other: intracolonic
Protocol: A catheterized rat model was used in which the agent alone or agent and β-glucuronidase enzyme was administered intraduodenally or intracolonically. The intraduodenal and intracolonic dosing was intended to prevent the potential for loss of enzymatic activity when orally dosing the β-glucuronidase (e.g. by degradation in the stomach). […]
For the oral gavage dosing, Compound 1 was prepared in neat PEG-400. For the intraduodenal and intracolonic dosing solutions, Compound 1 was added to neat Tween 80, the mixture was sonicated for thirty minutes at 45° C. until Compound 1 was completely dissolved and then deionized (DI) water was added to form a solution consisting of 20% Tween 80 and 80% DI water by weight.
For the oral enzyme solutions, β-glucuronidase was added to the final formulation at a concentration of 57,600 units/ml.
For the intraduodenal and intracolonic dosing, male Sprague Dawley rats weighing 300-400 g were purchased from Charles River Labs. All rat experiments were conducted under approved animal protocols. The rats were catheterized at Charles River Labs and had one or more of the following chronic catheters for dosing and sampling: jugular/carotid, duodenal, and colonic. Rats were limited to only one GI catheter and one vascular catheter. For IV dosing, rats were purchased with jugular and carotid catheters for dosing in the jugular catheter and blood sampling through the carotid catheter. For intraduodenal/intracolonic dosing, rats had one of the GI catheters for dosing and a carotid catheter for blood sampling.
The surgeries were done two weeks prior to start of testing. Rats were fed 4 hours post dose administration. All rats were dosed without anesthesia and sacrificed at the end of the study.
(§1) A quantitative method for determining the amount of (6,7-dimethoxy-2,4-dihydro-indeno[1,2-c]pyrazol-3-yl)-(3-fluoro-phenyl)-amine Compound 1 and its major metabolites, glucuronide A (Cpd 1-GluA) and glucuronide B (Cpd 1-GluB) (see Scheme A) in rat plasma was developed using phenacetin as an internal standard. [drawing 1]
(§2) The two glucuronide conjugates were prepared and purified to permit accurate quantification of the levels of intact parent Compound 1 versus Cpd 1-GluA and Cpd 1-GluB. Each standard curve for Compound 1, Cpd 1-GluA, and Cpd 1-GluB generated from rat plasma included ten concentration levels. […] The quantitative procedure for each sample included: sample preparation, HPLC separation and mass spectrometry detection.
(§3) The rat plasma was prepared using protein precipitation techniques. Reference standards and quality control samples in rat plasma for Compound 1 were transferred to a 96 deep-well plate. The precipitation solution contained 100 ng/ml of internal standard in acetonitrile. 300 μl of precipitation solution were added to 100 μl of each standard, quality control and plasma sample. Samples were vortexed for 10 mins, then centrifuged at 4500 RPM for 10 mins. 10 μl of each sample were injected for LC/MS/MS analysis.
(§4) The HPLC column chosen for the bioanalysis was purchased from Thermo Electron (Hypersil BetaBasic C18, 5 cm×2.1 mm). The eluting solvents were composed of Solvent A: 0.1% formic acid in H2O and Solvent B: 0.1% formic acid in acetonitrile. A step gradient was used and flow rate was 300 μl/min. The total run time was 3.2 mins. Solvent B was increased from 35% at 0 min to 75% at 2.1 mins and decreased back to 35% at 2.2 mins. The retention times for Compound 1, phenacetin, Cpd 1-GluA and Cpd 1-GluB were 1.1 min, 0.9 min, 1.3 min, and 1.6 min, respectively.
API3000 with a Turbo Ionspray interface from Applied Biosystems was used for the detection of Compound 1, the internal standard and major metabolites. Electrospray ionization was performed in the positive ion mode heated nebulizer with a temperature of 300° C. LC/MS/MS chromatograms were acquired in MRM (multiple reaction mode). […]

[2] = IV pharmacokinetics of Compound 1 and its glucuronides in rats; type: in vivo, rat; conditions: for AUC: read-out: AUC average ± standard deviation; for Cmax: read-out: Cmax average ± standard deviation
Protocol: Two separate IV studies were carried out using two separate lots of animals. IV-A was run on the same lot of animals as the oral gavage study and IV-B was run on the same lot of animals as the intraduodenal and intra-colonic studies.
For the IV dosing solutions (IV), Compound 1 was prepared by addition to DI water containing 20% hydroxypropyl β-cyclodextran by weight.
For the IV and oral gavage dosing (sampling at jugular and portal vein), young adult male Sprague Dawley rats weighing 250-400 g were purchased from Hilltop Lab Animals Inc. All rat experiments were conducted under approved animal protocols. The rats for the oral gavage dosing were catheterized at Hilltop Lab Animals Inc, had two chronic catheters for sampling: jugular and portal, were housed in cages of Culex™ Automated Blood Sampler (ABS) and blood samples were collected simultaneously via both cannula and were controlled by the Culex™ ABS control software.
as §1, §2, §3, §4
API3000 with a Turbo Ionspray interface from Applied Biosystems was used for the detection of Compound 1, the internal standard and major metabolites. Electrospray ionization was performed in the positive ion mode heated nebulizer with a temperature of 300° C. LC/MS/MS chromatograms were acquired in MRM (multiple reaction mode). The MRM transitions for Compound 1, the internal standard, Cpd 1-GluA and Cpd 1-GluB were from 326.3 to 190.6, 181.1 to 110.3, 502.2 to 368.3 and 502.2 to 326.4, respectively.
Pharmacokinetic analysis of the plasma concentration data was performed to determine the maximum plasma concentration (Cmax) for the oral dose, and the concentration at zero time (C0; Compound 1 only) by the extrapolation of drug concentrations back to the time of i.v. dosing, the time to maximum plasma concentration (Tmax) following the oral dose, area under the plasma concentration vs. time curve (AUC), terminal half-life (t1/2), plasma clearance (CL/F; Compound 1 only), and volume of distribution at steady state (Vdss; Compound 1 only) for the i.v. dose, using the WinNonlin (Version 3.1, Pharsight, Palo Alto, Calif.) validated computer program.

[3] = rats N=6, Compound 1 10 mg/kg intracolonic with β-glucuronidase, read-out: AUC average ± standard deviation 0 to 6 hours
[4] = rats N=6, Compound 1 10 mg/kg intracolonic with β-glucuronidase
[5] = rats N=6, Compound 1 10 mg/kg intracolonic without enzyme, read-out: AUC average ± standard deviation 0 to 6 hours
[6] = rats N=6, Compound 1 10 mg/kg intracolonic without enzyme
[7] = Sprague Dawley, rat, plasma, male rats N=4, Compound 1 2 mg/kg IV
[8] = Sprague Dawley, rat, plasma, male rats N=4, Compound 1 2 mg/kg IV, retro orbital sinus

| Compound | AUC [1, 3] [ng·h/mL] | Cmax [1, 4] [ng/mL] | AUC [1, 5] [ng·h/mL] | Cmax [1, 6] [ng/mL] | concentration at 0 h [1, 4] [ng/mL] | concentration at 0.25 h [1, 4] [ng/mL] | concentration at 0.5 h [1, 4] [ng/mL] | concentration at 1 h [1, 4] [ng/mL] | concentration at 2 h [1, 4] [ng/mL] | concentration at 3 h [1, 4] [ng/mL] | concentration at 4 h [1, 4] [ng/mL] | concentration at 5 h [1, 4] [ng/mL] | concentration at 6 h [1, 4] [ng/mL] | concentration at 0 h [1, 6] [ng/mL] | concentration at 0.25 h [1, 6] [ng/mL] | concentration at 0.5 h [1, 6] [ng/mL] | concentration at 1 h [1, 6] [ng/mL] | concentration at 2 h [1, 6] [ng/mL] | concentration at 3 h [1, 6] [ng/mL] | concentration at 4 h [1, 6] [ng/mL] | other results |
| --- | --- | --- | --- | --- | --- | --- | --- | --- | --- | --- | --- | --- | --- | --- | --- | --- | --- | --- | --- | --- | --- |
| COc1cc2c(cc1OC)-c1n[nH]c(Nc3cccc(F)c3)c1C2 [Compound 1, (6,7-dimethoxy-2,4-dihydro-indeno[1,2-c]pyrazol-3-yl)-(3-fluoro-phenyl)-amine] | 9.5 ± 2.5 | 4 ± 0.6 | 15.5 ± 24.9 | 9.5 ± 17.9 | 0 | 129 ± 41.4 | 107 ± 26.6 | 75.6 ± 35 | 21.2 ± 12.5 | 12.9 ± 4.3 | 9.5 ± 3.1 | 3.7 ± 6.3 | 1.7 ± 2.7 | 0 | 6.4 ± 11.5 | 8 ± 15.7 | 8.7 ± 18.2 | 2 ± 3.1 | 1.1 ± 2.7 | 0 | AUC ([1]; with and without β-glucuronidase, read-out: AUC of parent after intracolonic administration): < 16 ng·h/mL; concentration at 5 h [1, 6]: 0 ng/mL; concentration at 6 h [1, 6]: 0 ng/mL; Plasma level of Compound 1 relative to level of the metabolites ([2]; IV administration): 2%; AUC [2, 7]: 345 ± 42 ng·h/mL; C0 ([2]; Sprague Dawley, rat, plasma, male rats N=4, Compound 1 2 mg/kg IV, read-out: C0 (concentration at zero time, by extrapolation)): 783 ng/mL; Cmax [2, 7]: 783 ± 233 ng/mL; concentration at 0.08 h [2, 8]: 610 ng/mL; concentration at 0.33 h [2, 8]: 286 ng/mL; concentration at 1 h [2, 8]: 71.3 ng/mL; concentration at 2 h [2, 8]: 16.3 ng/mL; concentration at 4 h [2, 8]: 1.2 ng/mL; concentration at 8 h [2, 8]: 0 ng/mL; concentration at 24 h [2, 8]: 0 ng/mL |
| COc1cc2c(cc1OC)-c1n[nH]c(N(c3cccc(F)c3)[C@H]3O[C@@H](C(=O)O)[C@H](O)[C@@H](O)[C@@H]3O)c1C2 [Cpd 1-GluA] | 1770 | 755 ± 509 | 5060 | 1550 ± 1050 | 0 | 6450 | 4820 | 3860 | 812 ± 426 | 462 ± 208 | 480 ± 107 | 420 ± 74.1 | 462 ± 113 | 0 | 666 ± 198 | 6450 | 4820 | 3860 | 66.6 ± 42 | 88.2 ± 53.9 | concentration at 5 h [1, 6]: 83.1 ± 23.2 ng/mL; concentration at 6 h [1, 6]: 90.2 ± 28.1 ng/mL; AUC intracolonic relative to intraduodenal ([1]; no enzyme present): 4.3 times; AUC average ± standard deviation 0 to 6 hours [1, 4]: 1,767.6 ± 1,282.3 ng · hr/ml; AUC average ± standard deviation 0 to 6 hours [1, 6]: 5061.9 ± 1,656.0 ng · hr/ml; AUC [2, 7]: 8210 ng·h/mL; Cmax [2, 7]: 2970 ng/mL; concentration at 0 h ([2]; Sprague Dawley, rat, plasma, male rats N=4, Compound 1 2 mg/kg IV, retro orbital sinus, 0 hrs): 0 ng/mL; concentration at 0.08 h [2, 8]: 2440 ng/mL; concentration at 0.33 h [2, 8]: 2970 ng/mL; concentration at 1 h [2, 8]: 1670 ng/mL; concentration at 2 h [2, 8]: 492 ng/mL; concentration at 4 h [2, 8]: 68.6 ng/mL; concentration at 8 h [2, 8]: 369 ng/mL; concentration at 24 h [2, 8]: 18.6 ng/mL; Tmax ([2]; Sprague Dawley, rat, plasma, male rats, Compound 1 2 mg/kg IV): 18 min |
